≈ marks a conversion by molar mass, not a printed value. Calls of active or inactive are those of the source. The calls are words filed in the database; no cut-off is given here.
Experiments:
[1] = molecular target: Nav1.5 (sodium channel protein type 5 subunit alpha) (Homo sapiens, UniProt Q14524); test: Inhibition of Nav1.5 (unknown origin) at 30 uM relative to control; assay type: toxicity
[2] = Volume of distribution at steady state in cynomolgus monkey at 1 mg/kg, iv; assay type: ADME, organism-based, Macaca fascicularis; conditions: in vivo, read-out: Vdss
[3] = Kinetic solubility of the compound in pH 7.4 phosphate buffered saline measured after 2 hrs by LC/MS analysis; assay type: physicochemical; conditions: read-out: Kinetic_solubility
[4] = molecular target: T1, Sodium channel protein type 10 subunit alpha (Homo sapiens, UniProt Q9Y5Y9); test: Inhibition of Nav1.8 (unknown origin) at 10 uM by Ionflux high-throughput automated patch method
[5] = molecular target: Nav1.4 (sodium channel protein type 4 subunit alpha) (Homo sapiens, UniProt P35499); test: Inhibition of Nav1.4 (unknown origin) at 30 uM relative to control; assay type: toxicity
[6] = Volume of distribution at steady state in rat at 1 mg/kg, iv; assay type: ADME, organism-based; conditions: in vivo, read-out: Vdss
[7] = Clearance in rat at 1 mg/kg; assay type: ADME, organism-based; conditions: in vivo
[8] = molecular target: Nav1.3 (sodium channel protein type 3 subunit alpha) (Homo sapiens, UniProt Q9NY46); test: Inhibition of Nav1.3 (unknown origin) at 30 uM relative to control; assay type: toxicity
[9] = Clearance in dog at 1 mg/kg; assay type: ADME, organism-based, Canis lupus familiaris; conditions: in vivo
[10] = molecular target: Nav1.7 (sodium channel protein type 9 subunit alpha) (Homo sapiens, UniProt Q15858); test: Inhibition of Nav1.7 (unknown origin) at 30 uM relative to control; assay type: toxicity
[11] = molecular target: T1, Sodium channel protein type 10 subunit alpha; test: Inhibition of Nav1.8 (unknown origin) over expressed in HEK cells exposed to 120th depolarizing pulse at 10 Hz train of action potential at 12 nM; assay type: cell-based
[12] = Apparent permeability in MDCK-MDR1 cells; assay type: ADME, cell-based, Canis lupus familiaris; conditions: dog
Cytochrome P450 3A4 = Cytochrome P450 3A4 (Homo sapiens, UniProt P08684); test: Inhibition of CYP3A4 (unknown origin); assay type: ADME
[13] = Ratio of drug level in rat brain to plasma at 1 mg/kg, iv measured after 60 mins; assay type: ADME, organism-based; conditions: read-out: BPR
[14] = Protein binding in human plasma assessed as unbound fraction; assay type: ADME, cell-free
[15] = molecular target: T1, Sodium channel protein type 10 subunit alpha; test: Inhibition of human Nav1.8 with resting membrane potential by PatchXpress high-throughput electrophysiology method
[16] = Efflux ratio of apparent permeability in MDCK-MDR1 cells; assay type: ADME, cell-based, Canis lupus familiaris; conditions: dog
[17] = Clearance in cynomolgus monkey at 1 mg/kg; assay type: ADME, organism-based, Macaca fascicularis; conditions: in vivo
[18] = molecular target: Sodium channel protein type 10 subunit alpha (Mus musculus, UniProt Q6QIY3); test: Inhibition of mouse Nav1.8 with resting membrane potential at half inactivated state by PatchXpress high-throughput electrophysiology method
[19] = Stability in human liver microsomes assessed as parent compound remaining measured after 60 mins; assay type: ADME, Microsome; conditions: read-out: Stability
[20] = Volume of distribution at steady state in dog at 1 mg/kg, iv; assay type: ADME, organism-based, Canis lupus familiaris; conditions: in vivo, read-out: Vdss
[21] = Oral bioavailability in cynomolgus monkey at 10 mg/kg; assay type: ADME, organism-based, Macaca fascicularis; conditions: in vivo
[22] = molecular target: Nav1.6 (sodium channel protein type 8 subunit alpha) (Homo sapiens, UniProt Q9UQD0); test: Inhibition of Nav1.6 (unknown origin) at 30 uM relative to control; assay type: toxicity
[23] = molecular target: Voltage-gated inwardly rectifying potassium channel KCNH2 (Homo sapiens, UniProt Q12809); test: Inhibition of human ERG; assay type: toxicity
[24] = Oral bioavailability in dog at 10 mg/kg; assay type: ADME, organism-based, Canis lupus familiaris; conditions: in vivo
[25] = molecular target: T1, Sodium channel protein type 10 subunit alpha; test: Inhibition of human Nav1.8 with resting membrane potential at half inactivated state by PatchXpress high-throughput electrophysiology method
[26] = molecular target: Nav1.2 (sodium channel protein type 2 subunit alpha) (Homo sapiens, UniProt Q99250); test: Inhibition of Nav1.2 (unknown origin) at 30 uM relative to control; assay type: toxicity
Cytochrome P450 1A2 = molecular target: T2, Cytochrome P450 1A2 (Homo sapiens, UniProt P05177); test: Inhibition of CYP1A2 (unknown origin); assay type: ADME
T2 sequence (P05177 whole entry): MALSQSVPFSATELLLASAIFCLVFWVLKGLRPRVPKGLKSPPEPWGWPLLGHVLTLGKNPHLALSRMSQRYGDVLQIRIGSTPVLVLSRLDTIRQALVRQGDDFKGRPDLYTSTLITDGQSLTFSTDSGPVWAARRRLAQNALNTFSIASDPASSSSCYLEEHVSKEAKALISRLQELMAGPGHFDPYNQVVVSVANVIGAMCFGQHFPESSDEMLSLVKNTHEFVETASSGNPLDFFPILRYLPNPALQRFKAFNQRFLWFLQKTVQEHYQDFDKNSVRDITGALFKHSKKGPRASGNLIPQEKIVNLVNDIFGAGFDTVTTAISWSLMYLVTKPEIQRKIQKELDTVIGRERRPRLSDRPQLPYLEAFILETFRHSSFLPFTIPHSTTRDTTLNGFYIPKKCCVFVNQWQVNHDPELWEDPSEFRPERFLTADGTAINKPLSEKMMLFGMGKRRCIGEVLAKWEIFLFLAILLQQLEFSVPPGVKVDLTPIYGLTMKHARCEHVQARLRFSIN

[27] = Inhibition of Nav1.5 (domain 1 and 2)-Nav 1.8 (domain 3 and 4) chimera (unknown origin) with resting membrane potential at half inactivated state by PatchXpress high-throughput electrophysiology method; set-up: species or system Homo sapiens
[28] = molecular target: Nav1.1 (sodium channel protein type 1 subunit alpha) (Homo sapiens, UniProt P35498); test: Inhibition of Nav1.1 (unknown origin) at 30 uM relative to control; assay type: toxicity
[29] = molecular target: T1, Sodium channel protein type 10 subunit alpha; test: Inhibition of Nav1.8 (unknown origin) over expressed in HEK cells exposed to 1st depolarizing pulse at 10 Hz train of action potential at 12 nM; assay type: cell-based
[30] = Oral bioavailability in rat at 10 mg/kg; assay type: ADME, organism-based; conditions: in vivo
Cytochrome P450 2C9 = Cytochrome P450 2C9 (Homo sapiens, UniProt P11712); test: Inhibition of CYP2C9 (unknown origin) at 2 to 8 uM; assay type: ADME; conditions: dose 2-8 µM
[31] = molecular target: T1, Sodium channel protein type 10 subunit alpha; test: Inhibition of Nav1.8 (unknown origin) over expressed in HEK cells exposed to 1st depolarizing pulse at 10 Hz train of action potential at 35 nM; assay type: cell-based
[32] = Inhibition of Nav1.8 (domain 1 and 2)-Nav 1.5 (domain 3 and 4) chimera (unknown origin) with resting membrane potential at half inactivated state by PatchXpress high-throughput electrophysiology method; set-up: species or system Homo sapiens
[33] = molecular target: T1, Sodium channel protein type 10 subunit alpha; test: Inhibition of Nav1.8 (unknown origin) over expressed in HEK cells exposed to 120th depolarizing pulse at 10 Hz train of action potential at 35 nM; assay type: cell-based
[34] = Half life in rat; assay type: ADME; conditions: in vivo
[35] = molecular target: T1, Sodium channel protein type 10 subunit alpha; test: Inhibition of Nav1.8 (unknown origin) over expressed in HEK cells assessed as reduction in deltamethrin-stimulated channel activation by FLIPR assay; assay type: cell-based

Chain of Sodium channel protein type 10 subunit alpha (Mus musculus, UniProt Q6QIY3) (Q6QIY3 whole entry): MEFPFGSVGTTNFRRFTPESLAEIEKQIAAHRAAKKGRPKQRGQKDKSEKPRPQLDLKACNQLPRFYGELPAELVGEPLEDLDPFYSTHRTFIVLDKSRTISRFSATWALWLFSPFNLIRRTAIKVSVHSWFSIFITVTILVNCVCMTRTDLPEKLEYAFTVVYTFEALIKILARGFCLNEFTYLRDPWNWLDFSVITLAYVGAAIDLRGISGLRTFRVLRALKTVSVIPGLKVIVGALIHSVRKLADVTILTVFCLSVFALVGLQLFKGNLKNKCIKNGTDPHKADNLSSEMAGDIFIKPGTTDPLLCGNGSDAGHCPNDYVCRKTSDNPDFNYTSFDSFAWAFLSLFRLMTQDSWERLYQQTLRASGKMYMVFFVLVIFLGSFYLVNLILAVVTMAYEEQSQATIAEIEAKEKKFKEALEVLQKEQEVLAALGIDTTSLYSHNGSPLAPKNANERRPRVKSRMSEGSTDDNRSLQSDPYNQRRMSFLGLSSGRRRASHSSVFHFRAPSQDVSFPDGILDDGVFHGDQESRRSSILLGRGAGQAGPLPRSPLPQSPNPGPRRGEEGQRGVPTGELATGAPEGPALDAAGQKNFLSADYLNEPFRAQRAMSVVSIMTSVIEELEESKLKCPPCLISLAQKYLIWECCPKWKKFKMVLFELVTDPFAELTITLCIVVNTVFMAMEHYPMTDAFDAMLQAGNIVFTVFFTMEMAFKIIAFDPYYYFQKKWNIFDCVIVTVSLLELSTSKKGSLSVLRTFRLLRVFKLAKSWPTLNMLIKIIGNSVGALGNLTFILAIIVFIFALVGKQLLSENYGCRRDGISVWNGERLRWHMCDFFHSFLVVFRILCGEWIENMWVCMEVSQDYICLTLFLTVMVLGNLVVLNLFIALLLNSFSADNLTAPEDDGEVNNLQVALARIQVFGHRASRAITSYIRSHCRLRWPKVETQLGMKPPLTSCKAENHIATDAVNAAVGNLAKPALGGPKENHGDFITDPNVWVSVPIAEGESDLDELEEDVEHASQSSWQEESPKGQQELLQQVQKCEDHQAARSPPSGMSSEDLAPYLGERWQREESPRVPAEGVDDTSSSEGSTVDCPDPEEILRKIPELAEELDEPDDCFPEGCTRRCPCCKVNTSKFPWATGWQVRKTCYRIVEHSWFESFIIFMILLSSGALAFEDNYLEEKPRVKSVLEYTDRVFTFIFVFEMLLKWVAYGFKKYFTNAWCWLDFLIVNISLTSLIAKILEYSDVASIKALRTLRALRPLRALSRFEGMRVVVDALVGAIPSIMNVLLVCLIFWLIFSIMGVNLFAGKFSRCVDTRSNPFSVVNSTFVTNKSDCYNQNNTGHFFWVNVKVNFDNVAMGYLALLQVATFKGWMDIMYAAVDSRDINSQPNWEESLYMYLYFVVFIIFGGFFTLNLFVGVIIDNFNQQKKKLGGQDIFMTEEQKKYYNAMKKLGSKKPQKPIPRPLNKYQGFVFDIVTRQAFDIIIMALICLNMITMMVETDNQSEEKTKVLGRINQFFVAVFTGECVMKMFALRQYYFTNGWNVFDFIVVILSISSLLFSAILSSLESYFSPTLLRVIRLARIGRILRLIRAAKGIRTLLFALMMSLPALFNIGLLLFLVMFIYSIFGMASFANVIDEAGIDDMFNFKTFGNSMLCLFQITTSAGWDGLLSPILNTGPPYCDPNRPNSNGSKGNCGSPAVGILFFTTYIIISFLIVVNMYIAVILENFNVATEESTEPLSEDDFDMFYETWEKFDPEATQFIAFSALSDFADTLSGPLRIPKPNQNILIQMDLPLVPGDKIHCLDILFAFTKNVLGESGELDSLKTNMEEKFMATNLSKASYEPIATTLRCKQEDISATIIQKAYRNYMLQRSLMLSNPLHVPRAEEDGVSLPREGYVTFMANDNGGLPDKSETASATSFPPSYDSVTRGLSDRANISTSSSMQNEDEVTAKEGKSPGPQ
Chain of Voltage-gated inwardly rectifying potassium channel KCNH2 (Q12809 whole entry): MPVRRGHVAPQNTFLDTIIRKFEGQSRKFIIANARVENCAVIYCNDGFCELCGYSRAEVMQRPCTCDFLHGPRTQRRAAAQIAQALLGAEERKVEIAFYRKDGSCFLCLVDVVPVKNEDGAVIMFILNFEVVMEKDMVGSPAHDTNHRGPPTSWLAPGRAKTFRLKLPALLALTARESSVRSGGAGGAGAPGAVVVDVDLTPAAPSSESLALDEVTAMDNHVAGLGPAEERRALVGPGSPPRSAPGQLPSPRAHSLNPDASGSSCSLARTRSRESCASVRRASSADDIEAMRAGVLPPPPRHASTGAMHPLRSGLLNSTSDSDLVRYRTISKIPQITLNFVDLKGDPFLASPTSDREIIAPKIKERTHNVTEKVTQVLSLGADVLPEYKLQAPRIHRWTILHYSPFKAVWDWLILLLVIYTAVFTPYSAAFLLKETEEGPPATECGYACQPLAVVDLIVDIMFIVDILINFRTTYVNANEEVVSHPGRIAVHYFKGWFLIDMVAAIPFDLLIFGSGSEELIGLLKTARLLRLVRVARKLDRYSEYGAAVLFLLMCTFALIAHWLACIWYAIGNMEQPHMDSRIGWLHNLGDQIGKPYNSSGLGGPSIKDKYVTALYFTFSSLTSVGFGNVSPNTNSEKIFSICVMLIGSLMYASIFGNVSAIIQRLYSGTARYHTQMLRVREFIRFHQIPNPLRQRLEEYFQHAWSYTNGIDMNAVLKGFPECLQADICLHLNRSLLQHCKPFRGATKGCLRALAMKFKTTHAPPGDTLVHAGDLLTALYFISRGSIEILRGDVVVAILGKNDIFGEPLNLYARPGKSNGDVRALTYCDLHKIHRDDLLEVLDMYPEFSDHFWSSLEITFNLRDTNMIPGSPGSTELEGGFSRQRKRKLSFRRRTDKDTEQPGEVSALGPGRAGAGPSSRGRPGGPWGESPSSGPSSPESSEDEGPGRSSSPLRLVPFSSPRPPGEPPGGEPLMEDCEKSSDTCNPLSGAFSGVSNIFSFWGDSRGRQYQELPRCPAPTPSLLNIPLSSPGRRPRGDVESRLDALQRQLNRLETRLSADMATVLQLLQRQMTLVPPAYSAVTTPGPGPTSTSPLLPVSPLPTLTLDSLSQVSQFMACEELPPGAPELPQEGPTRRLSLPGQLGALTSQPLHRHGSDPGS
Chain of Cytochrome P450 3A4 (P08684 whole entry): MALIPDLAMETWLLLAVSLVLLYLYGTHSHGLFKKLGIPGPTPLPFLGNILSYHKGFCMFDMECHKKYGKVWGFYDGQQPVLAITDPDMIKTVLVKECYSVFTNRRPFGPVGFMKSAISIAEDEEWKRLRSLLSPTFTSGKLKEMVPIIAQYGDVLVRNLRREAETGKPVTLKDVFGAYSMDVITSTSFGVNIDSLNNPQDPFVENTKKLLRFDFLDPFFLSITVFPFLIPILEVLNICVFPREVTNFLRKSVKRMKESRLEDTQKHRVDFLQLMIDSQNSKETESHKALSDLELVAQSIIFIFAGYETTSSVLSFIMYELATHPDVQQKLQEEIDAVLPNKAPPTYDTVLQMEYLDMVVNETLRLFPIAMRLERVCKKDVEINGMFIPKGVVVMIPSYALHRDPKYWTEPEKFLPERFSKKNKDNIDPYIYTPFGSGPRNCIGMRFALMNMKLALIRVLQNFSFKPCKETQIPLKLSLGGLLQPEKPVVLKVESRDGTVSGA
Chain of Cytochrome P450 2C9 (P11712 whole entry): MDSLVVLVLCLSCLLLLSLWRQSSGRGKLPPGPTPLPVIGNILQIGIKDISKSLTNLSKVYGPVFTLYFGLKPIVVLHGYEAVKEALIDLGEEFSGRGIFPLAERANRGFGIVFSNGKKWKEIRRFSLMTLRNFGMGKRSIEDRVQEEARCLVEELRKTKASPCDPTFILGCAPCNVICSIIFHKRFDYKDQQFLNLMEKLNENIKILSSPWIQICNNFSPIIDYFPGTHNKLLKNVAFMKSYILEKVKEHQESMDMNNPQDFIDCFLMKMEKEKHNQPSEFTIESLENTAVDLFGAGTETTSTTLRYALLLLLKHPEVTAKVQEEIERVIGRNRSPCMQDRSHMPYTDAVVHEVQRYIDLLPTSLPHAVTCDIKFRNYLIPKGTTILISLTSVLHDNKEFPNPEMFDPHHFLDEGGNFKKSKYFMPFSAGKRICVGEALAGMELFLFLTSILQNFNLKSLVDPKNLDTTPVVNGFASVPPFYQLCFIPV

| SMILES | inhibition at 30 µM [1] | Vd [2] | solubility kinetic at 2 h [3] | inhibition [4] | inhibition at 30 µM [5] | Vd [6] | clearance [7] | clearance [9] | Papp [12] | INH (Cytochrome P450 3A4) | fraction unbound [14] | efflux ratio [16] | IC50 [18] | remaining at 1 h [19] | Vd [20] | IC50 [23] | bioavailability [24] | IC50 [25] | INH (Cytochrome P450 1A2) | bioavailability [30] | further results |
| --- | --- | --- | --- | --- | --- | --- | --- | --- | --- | --- | --- | --- | --- | --- | --- | --- | --- | --- | --- | --- | --- |
| CS(=N)(=O)c1cccc(NC(=O)c2cc(C(F)(F)F)cnc2Oc2ccc(F)cc2Cl)c1 (centres undefined) | < 25% | 2.9 L/kg | 26 µg/mL (≈ 53.3 µM) | Active | < 25% | 1.9 L/kg | 5.9 mL/min/kg | 3.6 mL/min/kg | 15.5 ×10⁻⁶ cm/s | > 30 µM | 0.073 | 0.8 | 660 nM | > 95% | 2 L/kg | > 30000 nM | 61% | 12 nM | > 30 µM | 86% | inhibition at 30 µM [8]: < 25%; inhibition at 30 µM [10]: < 25%; inhibition [11]: 24.9%; Kp at 1 h [13]: 0.89; IC50 [15]: 43 nM; clearance [17]: 2.5 mL/min/kg; bioavailability [21]: 98%; inhibition at 30 µM [22]: < 25%; inhibition at 30 µM [26]: < 25%; IC50 [27]: 9310 nM; inhibition at 30 µM [28]: < 25%; inhibition [29]: 25.4% |
| COc1cc(F)ccc1Oc1cc(C(F)(F)F)ncc1C(=O)Nc1ccnnc1 | – | – | 95 µg/mL (≈ 233 µM) | Active | – | 1 L/kg | 24 mL/min/kg | 11 mL/min/kg | 63 ×10⁻⁶ cm/s | > 30 µM | 0.15 | 0.7 | 3100 nM | 95% | 3.4 L/kg | > 30000 nM | 100% | 71 nM | 4 µM | 45% | inhibition (INH) (Cytochrome P450 2C9): Moderate_effect |
| Cc1cc(F)ccc1Oc1ncc(C(F)(F)F)cc1C(=O)Nc1cccc([S@](C)(=N)=O)c1 | < 25% | 1.9 L/kg | 65 µg/mL (≈ 139 µM) | Active | < 25% | 1.8 L/kg | 6.1 mL/min/kg | 1.7 mL/min/kg | 18.1 ×10⁻⁶ cm/s | > 30 µM | 0.14 | 0.8 | 3040 nM | > 95% | 1.2 L/kg | > 30000 nM | 39% | 35 nM | > 30 µM | 80% | inhibition [31]: 33.8%; inhibition at 30 µM [8]: < 25%; inhibition at 30 µM [10]: < 25%; IC50 [32]: 40 nM; inhibition [33]: 35.5%; Kp at 1 h [13]: 0.6; IC50 [15]: 53 nM; clearance [17]: 7.7 mL/min/kg; bioavailability [21]: 61%; inhibition at 30 µM [22]: < 25%; inhibition at 30 µM [26]: < 25%; IC50 [27]: > 30000 nM; inhibition at 30 µM [28]: < 25% |
| COc1cc(F)ccc1Oc1ncc(C(F)(F)F)cc1C(=O)Nc1cccc(S(C)(=O)=O)c1 | – | – | – | Active | – | – | 16 mL/min/kg | – | – | – | – | – | – | – | – | – | – | 14 nM | – | 14% | half-life [34]: 5.6 h; IC50 [35]: 60 nM |

Source: ChEMBL document CHEMBL6114946, “Development and characterization of pyridyl carboxamides as potent and highly selective Nav1.8 inhibitors” (Bioorg Med Chem Lett, 2025)
